Assay results: patent publication US20260242416A1, “ANTIMICROBIAL PEPTIDES” (priority 2023, published 2026)
Where a SMILES comes first, the peptide text is derived from it.

Assays:
E. coli ATCC 25922 = type: cell-based, Escherichia coli; conditions: ATCC 25922
Description: (§1) Bacteria were grown overnight at 37° C. in Mueller-Hinton Broth (MHB; Sigma-Aldrich, St. Louis. MO, USA) in a shaking incubator and aliquoted into cryovials with a 50% glycerol solution in a 1:1 ratio. No additives were added to the MHB during the growth of bacterial isolates. Glycerol stocks were stored at −80° C.
(§2) The antimicrobial activity of the putative AMPs was determined by a broth microdilution assay as described by the Clinical and Laboratory Standards Institute, with the published adaptations for testing of cationic peptides. Escherichia coli 25922 and Staphylococcus aureus 29213 isolates were purchased from the American Type Culture Collection (ATCC; Manassas, VA, USA). A human clinical isolate of Salmonella enterica serovar Enteritidis was provided by the BC Centre for Disease Control. Bacteria from stocks stored at −80° C. were streaked onto nonselective Columbia blood agar with 5% sheep blood (Oxoid) and incubated overnight at 37° C. Next, 2-4 colonies were streaked onto a new agar plate to ensure uniform health of colonies used in the broth microdilution assay. Isolated colonies were suspended in MHB and the optical density was measured with a spectrophotometer to create an initial inoculum concentration of approximately 1×10^8 cfu/mL. The inoculum was diluted 1:250 to a final concentration of 2-8×10^5 cfu/mL, which was confirmed by performing a Total Viability Count (TVC). The TVC consisted of plating a 1:1000 dilution of the final inoculum on nonselective media and was also used to confirm the health and purity of the inoculum in each trial.
(§3) Lyophilized 80 μg peptide aliquots synthesized by GenScript (Piscataway, NJ, USA) were resuspended to 1.28 mg/mL with UltraPure water (Thermo Fisher Scientific, Waltham, MA, USA) and serially diluted in polypropylene 96-well microtiter plates (Greiner Bio-One #650261, Kremsmunster, Austria) from 128 down to 0.5 μg/mL. Two columns per plate were reserved for growth and sterility controls. Inoculum was added to the wells containing the peptide and the growth control. Plates were incubated for 20-24 h at 37° C. The minimum inhibitory concentration (MIC) was determined as the lowest peptide concentration where there was no visible bacterial growth.

[1] = test system: Salmonella enterica serovar Enteritidis (human clinical isolate); type: cell-based; conditions: serovar Enteritidis (human clinical isolate)
Description: as §1, §2, §3

S. aureus ATCC 29213 = type: cell-based, Staphylococcus aureus; conditions: ATCC 29213
Description: as §1, §2, §3

CC(C)[C@H](N)C(=O)N[C@@H](CCCCN)C(=O)N[C@@H](CS)C(=O)N[C@@H](CCCNC(=N)N)C(=O)N[C@H](C(=O)N[C@@H](CCCNC(=N)N)C(=O)N[C@@H](CCCNC(=N)N)C(=O)O)C(C)C [ApMe1, VKCRVRR] (H-VKCRVRR-OH; N-terminus and C-terminus assumed)
>128/>128/>128 ug/mL: MIC (ug/mL) E. coli (E. coli ATCC 25922) | MIC (ug/mL) S. Enteritidis [1] | MIC (ug/mL) S. aureus (S. aureus ATCC 29213)

CC(C)C[C@H](NC(=O)[C@H](C)NC(=O)[C@@H](NC(=O)[C@H](CC(=O)O)NC(=O)[C@H](CCCNC(=N)N)NC(=O)[C@H](CCCCN)NC(=O)[C@H](Cc1ccccc1)NC(=O)[C@@H](NC(=O)[C@H](CCC(=O)O)NC(=O)[C@H](CCCCN)NC(=O)[C@H](Cc1c[nH]cn1)NC(=O)[C@H](C)NC(=O)CN)C(C)C)[C@@H](C)O)C(=O)N[C@H](C(=O)N[C@@H](CCCCN)C(=O)N[C@@H](CCC(=O)O)C(=O)N[C@@H](C)C(=O)N[C@@H](C)C(=O)N[C@@H](CCCCN)C(=O)N[C@@H](CCCCN)C(=O)N[C@@H](C)C(=O)N[C@@H](CCCCN)C(=O)N[C@@H](CCCCN)C(=O)O)[C@@H](C)O [ApMe2] (H-GAHKEVFKRDTALTKEAAKKAKK-OH; N-terminus and C-terminus assumed)
>128/>128/>128 ug/mL: MIC (ug/mL) E. coli (E. coli ATCC 25922) | MIC (ug/mL) S. Enteritidis [1] | MIC (ug/mL) S. aureus (S. aureus ATCC 29213)

CC[C@H](C)[C@H](NC(=O)[C@H](CC(C)C)NC(=O)CNC(=O)[C@H](Cc1c[nH]c2ccccc12)NC(=O)CN)C(=O)N[C@@H](CC(N)=O)C(=O)N[C@H](C(=O)N[C@@H](CCCCN)C(=O)N[C@H](C(=O)N1CCC[C@H]1C(=O)N1CCC[C@H]1C(=O)N[C@H](C(=O)N[C@@H](CC(C)C)C(=O)N[C@@H](Cc1c[nH]cn1)C(=O)N[C@@H](CCCCN)C(=O)N[C@H](C(=O)N[C@@H](CO)C(=O)N[C@H](C(=O)N1CCC[C@H]1C(=O)N[C@@H](CC(C)C)C(=O)N[C@H](C(=O)N[C@@H](CO)C(=O)N[C@@H](CCCCN)C(=O)N[C@@H](CCCNC(=N)N)C(=O)O)C(C)C)C(C)C)C(C)C)C(C)C)[C@@H](C)CC)[C@@H](C)CC [ApMe3] (H-GWGLINIKIPPVLHKVSVPLVSKR-OH; N-terminus and C-terminus assumed)
>128/>128/>128 ug/mL: MIC (ug/mL) E. coli (E. coli ATCC 25922) | MIC (ug/mL) S. Enteritidis [1] | MIC (ug/mL) S. aureus (S. aureus ATCC 29213)

CC[C@H](C)[C@H](NC(=O)[C@H](CC(C)C)NC(=O)[C@H](CO)NC(=O)[C@H](CCCCN)NC(=O)[C@H](CC(C)C)NC(=O)[C@@H](NC(=O)[C@H](Cc1ccc(O)cc1)NC(=O)[C@H](CCCNC(=N)N)NC(=O)[C@H](CCCNC(=N)N)NC(=O)[C@H](Cc1c[nH]cn1)NC(=O)[C@H](CCCNC(=N)N)NC(=O)[C@H](CCC(=O)O)NC(=O)[C@H](Cc1c[nH]cn1)NC(=O)[C@H](CCCNC(=N)N)NC(=O)[C@H](CC(C)C)NC(=O)[C@H](CCCCN)NC(=O)[C@@H](NC(=O)[C@H](Cc1c[nH]cn1)NC(=O)[C@H](Cc1c[nH]cn1)NC(=O)[C@H](Cc1c[nH]cn1)NC(=O)[C@@H](N)CCCCN)[C@@H](C)CC)[C@@H](C)CC)C(=O)O [ApMe4] (H-KHHHIKLRHERHRRYILKSLI-OH; N-terminus and C-terminus assumed)
>128/>128/>128 ug/mL: MIC (ug/mL) E. coli (E. coli ATCC 25922) | MIC (ug/mL) S. Enteritidis [1] | MIC (ug/mL) S. aureus (S. aureus ATCC 29213)

CC[C@H](C)[C@H](NC(=O)[C@@H](N)CO)C(=O)N[C@@H](CC(C)C)C(=O)N[C@@H](CO)C(=O)N[C@H](C(=O)N[C@@H](CC(C)C)C(=O)N[C@@H](CO)C(=O)N[C@@H](Cc1c[nH]cn1)C(=O)N[C@@H](CCCCN)C(=O)N[C@@H](CCCNC(=N)N)C(=O)O)[C@@H](C)O [ApMe5, SILSTLSHKR] (H-SILSTLSHKR-OH; N-terminus and C-terminus assumed)
>128/>128/>128 ug/mL: MIC (ug/mL) E. coli (E. coli ATCC 25922) | MIC (ug/mL) S. Enteritidis [1] | MIC (ug/mL) S. aureus (S. aureus ATCC 29213)

CC[C@H](C)[C@H](NC(=O)[C@H](CCCCN)NC(=O)[C@H](CCCNC(=N)N)NC(=O)[C@H](C)NC(=O)[C@@H](N)CCCNC(=N)N)C(=O)N[C@@H](CCCNC(=N)N)C(=O)N[C@@H](CCCNC(=N)N)C(=O)N[C@@H](CCCNC(=N)N)C(=O)N[C@@H](CCCNC(=N)N)C(=O)NCC(=O)N[C@@H](CO)C(=O)N[C@@H](CC(C)C)C(=O)N[C@@H](CCCNC(=N)N)C(=O)N[C@@H](Cc1c[nH]cn1)C(=O)N[C@@H](CS)C(=O)N[C@H](C(=O)N[C@H](C(=O)N[C@H](C(=O)N1CCC[C@H]1C(=O)N[C@@H](CO)C(=O)N[C@H](C(=O)N1CCC[C@H]1C(=O)N[C@@H](CO)C(=O)NCC(=O)N[C@@H](CCCNC(=N)N)C(=O)O)[C@@H](C)O)[C@@H](C)CC)[C@@H](C)O)C(C)C [ApMe6] (H-RARKIRRRRGSLRHCVTIPSTPSGR-OH; N-terminus and C-terminus assumed)
>128/>128/>128 ug/mL: MIC (ug/mL) E. coli (E. coli ATCC 25922) | MIC (ug/mL) S. Enteritidis [1] | MIC (ug/mL) S. aureus (S. aureus ATCC 29213)

CC(C)[C@H](NC(=O)[C@H](CCCCN)NC(=O)CNC(=O)[C@H](C)NC(=O)CNC(=O)[C@H](C)NC(=O)[C@H](C)N)C(=O)N[C@H](C(=O)N[C@@H](CCCCN)C(=O)N[C@@H](CO)C(=O)N[C@@H](C)C(=O)N[C@@H](CCC(N)=O)C(=O)N[C@@H](CCCCN)C(=O)N[C@@H](C)C(=O)N[C@@H](CCC(N)=O)C(=O)N[C@@H](CCCCN)C(=O)N[C@@H](C)C(=O)N[C@@H](CCCCN)C(=O)O)[C@@H](C)O [BoAr1, AAGAGKVTKSAQKAQKAK] (H-AAGAGKVTKSAQKAQKAK-OH; N-terminus and C-terminus assumed)
>128/>128/>128 ug/mL: MIC (ug/mL) E. coli (E. coli ATCC 25922) | MIC (ug/mL) S. Enteritidis [1] | MIC (ug/mL) S. aureus (S. aureus ATCC 29213)

CC[C@H](C)[C@H](NC(=O)[C@H](CCCCN)NC(=O)[C@H](CC(C)C)NC(=O)[C@H](Cc1c[nH]c2ccccc12)NC(=O)[C@@H]1CCCN1C(=O)[C@H](Cc1c[nH]cn1)NC(=O)[C@H](CCCCN)NC(=O)[C@H](CC(C)C)NC(=O)[C@H](CS)NC(=O)[C@H](CCC(=O)O)NC(=O)[C@H](C)NC(=O)[C@H](C)NC(=O)[C@@H](NC(=O)[C@H](C)N)[C@@H](C)O)C(=O)N[C@@H](CCCCN)C(=O)N[C@@H](CCCCN)C(=O)O [BoAr2, ATAAECLKHPWLKIKK] (H-ATAAECLKHPWLKIKK-OH; N-terminus and C-terminus assumed)
>128/>128/>128 ug/mL: MIC (ug/mL) E. coli (E. coli ATCC 25922) | MIC (ug/mL) S. Enteritidis [1] | MIC (ug/mL) S. aureus (S. aureus ATCC 29213)

CC[C@H](C)[C@H](N)C(=O)N[C@H](C(=O)N[C@@H](CCCNC(=N)N)C(=O)N[C@@H](C)C(=O)N[C@H](C(=O)N[C@@H](C)C(=O)N[C@@H](C)C(=O)N[C@@H](CCC(=O)O)C(=O)N[C@@H](CS)C(=O)N[C@@H](CC(C)C)C(=O)N[C@@H](CCCCN)C(=O)N[C@@H](Cc1c[nH]cn1)C(=O)N1CCC[C@H]1C(=O)N[C@@H](Cc1c[nH]c2ccccc12)C(=O)N[C@@H](CC(C)C)C(=O)N[C@@H](CCCCN)C(=O)N[C@H](C(=O)N[C@@H](CCCCN)C(=O)N[C@@H](CCCCN)C(=O)O)[C@@H](C)CC)[C@@H](C)O)[C@@H](C)CC [BoAr3, IIRATAAECLKHPWLKIKK] (H-IIRATAAECLKHPWLKIKK-OH; N-terminus and C-terminus assumed)
>128/>128/>128 ug/mL: MIC (ug/mL) E. coli (E. coli ATCC 25922) | MIC (ug/mL) S. Enteritidis [1] | MIC (ug/mL) S. aureus (S. aureus ATCC 29213)
